Measured values taken from patent US11844786B2 (ADEPTIO PHARMACEUTICALS LIMITED, priority 2017, dated 2023).

System: amphetamine-induced rats
Conditions: Study 1, 2.5 mg/kg, compared to vehicle-amphetamine group
Method: Locomotor activity of the rats was tested in open field arena.

In the case of `COc1cc2c(cc1OC)[C@@H]1C[C@H](O)[C@@H](CC(C)C)CN1CC2` [(−)-α-DHTBZ, (2S, 3S, 11bS)-3-isobutyl-9,10-dimethoxy-1,3,4,6,7,11b-hexahydro-2H-pyrido[2,1,a]isoquinolin-2-ol], the stereotypic behaviour was “did not lead to lower locomotor activity or reduced stereotypic behaviour” and the “locomotor activity (distance travelled)” value (listed as (−)-α-isomer) was “very little, if any, reduction”.
